Data taken from US10011573B2, “Human androgen receptor DNA-binding domain (DBD) compounds as therapeutics and methods for their use” (The University of British Columbia, priority 2014, dated 2018).
Read-outs that look alike come from different tables or passages of the source.

Target: T1, androgen receptor (AR) (Homo sapiens, UniProt P10275, T878A)
T1 sequence (P10275 1-920 T878A): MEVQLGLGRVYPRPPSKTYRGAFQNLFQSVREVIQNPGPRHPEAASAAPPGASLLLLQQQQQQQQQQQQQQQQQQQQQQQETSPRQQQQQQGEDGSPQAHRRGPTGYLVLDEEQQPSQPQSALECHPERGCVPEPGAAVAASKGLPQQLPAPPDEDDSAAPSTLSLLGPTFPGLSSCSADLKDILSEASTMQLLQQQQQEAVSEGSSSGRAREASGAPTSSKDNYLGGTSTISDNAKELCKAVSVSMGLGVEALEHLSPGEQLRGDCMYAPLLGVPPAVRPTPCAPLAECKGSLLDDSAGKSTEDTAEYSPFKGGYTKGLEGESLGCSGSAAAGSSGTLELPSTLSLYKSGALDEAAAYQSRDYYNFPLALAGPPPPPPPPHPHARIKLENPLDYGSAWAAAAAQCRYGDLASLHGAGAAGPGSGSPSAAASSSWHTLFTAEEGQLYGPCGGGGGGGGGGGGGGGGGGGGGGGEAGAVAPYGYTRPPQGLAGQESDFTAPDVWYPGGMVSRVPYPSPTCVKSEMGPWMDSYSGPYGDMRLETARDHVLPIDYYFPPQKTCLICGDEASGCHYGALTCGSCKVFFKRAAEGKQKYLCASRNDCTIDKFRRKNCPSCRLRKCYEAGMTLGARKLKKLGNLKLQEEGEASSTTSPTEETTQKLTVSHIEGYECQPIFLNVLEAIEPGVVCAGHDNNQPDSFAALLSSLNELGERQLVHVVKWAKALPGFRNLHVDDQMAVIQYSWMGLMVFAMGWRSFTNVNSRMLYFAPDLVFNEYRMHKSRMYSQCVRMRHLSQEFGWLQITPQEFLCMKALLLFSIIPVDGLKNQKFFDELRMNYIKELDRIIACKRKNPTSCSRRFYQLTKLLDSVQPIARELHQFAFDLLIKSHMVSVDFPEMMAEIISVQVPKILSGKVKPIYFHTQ
Assay: eGFP cellular AR transcription assay (LNCaP eGFP cells, LN-ARR2PB-eGFP)
Conditions: for inhibition at 3 µM: LNCaP, read-out: % Inhibition (3 μM); for anti-AR activity (AR transcriptional inhibition) in words: LNCaP (T877A AR); for eGFP IC50: 0.1 nM R1881

[1] = eGFP IC50 (μM), LNCaP eGFP cells

| inhibition at 3 µM [%] | SMILES | % Inhibition (3 μM) [%] | further results |
| --- | --- | --- | --- |
| – | NC(=O)N1CCN(c2nc(-c3ccccc3)cs2)CC1 [Compound 14339] | 15.82 | – |
| – | c1cc2c3c(ccc(-c4ccn[nH]4)c3c1)CC2 [Compound 14053] | – | IC50 [1]: 4 µM |
| – | Brc1ccc(-c2csc(N3CCOCC3)n2)cc1 [Compound 14251] | 7.96 | – |
| – | Cc1sc(CO)c(-c2csc(N3CCOCC3)n2)c1C [Compound 14466] | – | IC50 (eGFP IC50 (μM), Series 1): 0.4 µM |
| – | FC(F)(F)c1cccc(-c2csc(-c3cnccn3)n2)c1 [Compound 14486] | 20.4 | – |
| – | Cc1sc(N2CCOCC2)nc1-c1ccccc1 [Compound 14349] | – | IC50 (eGFP IC50 (μM), Series 1): 1.47 µM |
| 93.1 | Nc1ccccc1CN1C(=O)Cc2ccccc21 [Compound 14082] | – | IC50 [1]: 9.5 µM |
| 0 | O=[N+]([O-])c1ccc2nc(N3CCOCC3)ccc2c1 [Compound 14454] | – | – |
| – | Cc1ccc(-c2nc(N3CCOCC3)sc2C)cc1 [Compound 14284] | 30.22 | – |
| – | COc1ccc(-c2csc(-c3c[nH]c4ccccc34)n2)cc1 [Compound 14443] | 25.15 | – |
| – | Cc1ccccc1CN1C(=O)NC2C=CC=CC21 (stereo not drawn) [Compound 14065] | – | IC50 [1]: 10 µM |
| – | CCc1ccc(-c2csc(N3CCOCC3)n2)cc1 [Compound 14259] | 26.26 | – |
| – | O=C1C(Cl)=C(N2CCOCC2)C(=O)N1c1ccccc1Cl [Compound 14475] | 8.89 | – |
| 22 | c1sc(N2CCOCC2)nc1C1CCCC1 [Compound 14403] | – | anti-AR activity (AR transcriptional inhibition) in words: lost their anti-AR activity; eGFP IC50 (LNCaP eGFP cells): Low activity |
| 45.5 | NC(=S)N/N=C1\CCCc2ccccc21 [Compound 14175] | – | IC50 [1]: 13.6 µM |
| 54.4 | Nc1nc(-c2ccc3c(c2)CCCC3)cs1 [Compound 14198] | – | IC50 [1]: 5.51 µM |
| 18.6 | c1cc2c(cc1-c1csc(N3CCOCC3)n1)CCCC2 [Compound 14291] | – | anti-AR activity (AR transcriptional inhibition) in words: lost their anti-AR activity; eGFP IC50 (LNCaP eGFP cells): Low activity |
| 89.4 | c1ccc2nc(N3CCCCC3)ccc2c1 [Compound 14495] | – | IC50 [1]: 0.6 µM |
| – | COc1cccc(-c2csc(-c3ccccn3)n2)c1 [Compound 14343] | 16.12 | – |
| 0 | O=C(O)c1csc(N2CCOCC2)n1 [Compound 14502] | – | – |
| – | Cc1ccc(-c2csc(N3CCOCC3)n2)c(C)c1 [Compound 14283] | 38.89 | – |
| – | c1ccc2c(c1)ncn2-c1csc(N2CCOCC2)n1 [Compound 14509] | – | IC50 (read-out: eGFP IC50): 1.17 µM |

| inhibition at 3 µM [%] | SMILES | % Inhibition (3 μM) [%] | further results |
| --- | --- | --- | --- |
| – | Clc1scc(-c2csc(N3CCOCC3)n2)c1Cl [Compound 14462] | – | IC50 (eGFP IC50 (μM), Series 1): 0.11 µM |
| – | CCSc1ccc(-c2cc(C)nc(N)n2)cc1 [Compound 14055] | – | IC50 [1]: 10 µM |
| – | COc1ccccc1-c1nc(N2CCOCC2)sc1C [Compound 14363] | 29.03 | – |
| – | Cc1sccc1-c1csc(N2CCOCC2)n1 [Compound 14407] | 38.00 | – |
| – | CS(=O)(=O)c1c(F)cccc1-c1csc(N2CCOCC2)n1 [Compound 14429] | – | IC50 (eGFP IC50 (μM), Series 1): 3.55 µM |
| – | NC(=S)N/N=C1\C(=O)c2cccc3cccc1c23 [Compound 14151] | – | IC50 [1]: 30 µM |
| – | CSc1ccc(-c2csc(N3CCOCC3)n2)cc1 [Compound 14297] | 109.99 | – |
| – | Oc1ccc(-c2csc(N3CCOCC3)n2)c(O)c1 [Compound 14295] | 24.7 | – |
| 92.5 | NC(=S)N/N=C1\Cc2cccc3cccc1c23 [Compound 14005] | – | IC50 [1]: 2 µM |
| 65.4 | C[C@@H]1C(=O)N(c2ccccc2)C2C=CC=CC21 (stereo partly drawn) [Compound 14078] | – | IC50 [1]: 20 µM |
| 66.5 | Nc1cccc(-c2ccc3ccccc3n2)c1 [Compound 14321] | – | – |
| 109 | Nc1ccc2nc(-c3cccc(O)c3)sc2c1 [Compound 14387] | – | IC50 [1]: 14.8 µM |
| 109 | C/C(=N\NC(N)=S)c1ccc2c3c(cccc13)CC2 [Compound 14206] | – | IC50 [1]: 3.4 µM |
| – | CS(=O)(=O)c1ccc(-c2csc(N3CCOCC3)n2)cc1 [Compound 14277] | 12.71 | – |
| 38.2 | Clc1ccc(-c2csc(N3CCOCC3)n2)cc1 [Compound 14253] | – | IC50 (eGFP IC50 (μM), Series 1): 39.9 µM |
| – | Nc1ccc(-c2csc(N3CCOCC3)n2)cc1 [Compound 14256] | 28.14 | – |
| 44.9 | OCc1cccc(-c2ccc3ccccc3n2)c1 [Compound 14388] | – | IC50 [1]: 10.4 µM |
| 99.5 | c1ccc2c(-c3csc(N4CCOCC4)n3)cccc2c1 [Compound 14230] | – | IC50 (eGFP IC50 (μM), Series 1): 1.61 µM |
| 46.4 | NC(=S)NN=C(c1ccccc1)c1ccccc1 [Compound 14172] | – | IC50 [1]: 29.4 µM |
| – | Fc1ccc(-c2csc(N3CCNCC3)n2)cc1 [Compound 14340] | 16.12 | – |
| – | c1ccn(-c2csc(N3CCOCC3)n2)c1 [Compound 14411] | 44.00 | – |
| 107 | FC(F)(F)c1cccc(-c2csc(-c3ccncc3)n2)c1 [Compound 14421] | – | IC50 (eGFP IC50 (μM), Series 1): 4.61 µM |

| inhibition at 3 µM [%] | SMILES | % Inhibition (3 μM) [%] | further results |
| --- | --- | --- | --- |
| – | COc1ccc(-c2csc(N3CCOCC3)n2)c(OC)c1 [Compound 14268] | 37.55 | – |
| – | N#Cc1ccc(-c2csc(N3CCOCC3)n2)cc1 [Compound 14261] | – | % Inhibition (3 μM) (3 µM): 25.48% |
| – | c1cc2c(cc1-c1csc(N3CCOCC3)n1)COC2 [Compound 14282] | 29.04 | – |
| – | c1ccc2c(-n3ccnc3)cccc2c1 [Compound 14163] | – | IC50 [1]: 24 µM |
| – | N#Cc1ccc(-c2csc(N3CCOCC3)n2)cc1 [Compound 14457] | – | % Inhibition (3 μM) (3 µM): 80% |
| – | CNC(=S)N/N=C1\C(=O)c2cccc3cccc1c23 [Compound 14153] | – | IC50 [1]: 6 µM |
| 41.6 | c1ccc(-c2csc(-c3c[nH]c4ccccc34)n2)cc1 [Compound 14361] | – | IC50 (eGFP IC50 (μM), Series 1): 10.1 µM |
| – | c1ccc(-c2csc(N3CCCC3)n2)cc1 [Compound 14351] | 38.4 | – |
| – | Fc1ccccc1-c1csc(N2CCOCC2)n1 [Compound 14286] | 85.86 | – |
| – | Clc1cnccc1-c1csc(N2CCOCC2)n1 [Compound 14446] | 24 | – |
| – | Oc1ccccc1/C=C/c1ccccn1 [Compound 14088] | – | IC50 [1]: 3.54 µM |
| 40 | Cc1ccc(-c2csc(N3CCOCC3)n2)cc1C [Compound 14294] | – | IC50 (eGFP IC50 (μM), Series 1): 10.3 µM |
| – | CN1CCN(c2nc(-c3ccccc3)cs2)CC1 [Compound 14338] | 19.33 | – |
| – | c1ccc2sc(-c3csc(N4CCOCC4)n3)nc2c1 [Compound 14137] | 37.44 | – |
| – | c1ccc2cc(-c3csc(N4CCOCC4)n3)ccc2c1 [Compound 14231] | 38.78 | – |
| 45.8 | NC(=S)NN=C1c2ccccc2-c2ccccc21 [Compound 14205] | – | IC50 [1]: 7.38 µM |
| – | Cc1cc(N2CCOCC2)nc2ccccc12 [Compound 14434] | – | IC50 [1]: 1.09 µM |
| 27.1 | Oc1ccccc1-c1ccc2cccnc2n1 [Compound 14336] | – | – |
| 60 | CC1CCCN(c2nc(-c3ccc(O)cc3O)cs2)C1 (stereo not drawn) [Compound 14301] | – | IC50 (eGFP IC50 (μM), Series 1): 5 µM |
| – | Fc1ccc(-c2csc(N3CCSCC3)n2)cc1 [Compound 14386] | – | IC50 (eGFP IC50 (μM), Series 1): 1.6 µM |
| 9 | c1ccc2c(N3CCOCC3)nccc2c1 [Compound 14112] | – | – |
| – | c1ccc(-c2csc(N3CCSCC3)n2)cc1 [Compound 14385] | – | IC50 (eGFP IC50 (μM), Series 1): 0.6 µM |
